A short description of assay [1]: NIH-3T3 fibroblast cytotoxicity, dose response, cytotoxicity control, cell-based, fluorescence, Alamar Blue, secondary assay (AID 2327).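 Also: NIH-3T3 mouse fibroblasts cultured with fluconazole at 8 µg/mL.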 It counts as functional.
A short description of assay [2]: C. albicans growth with fluconazole, confirmation, fluorescence, retest (AID 2467). Type of assay: functional, cell-based.
A further assay concerns the target Genome polyprotein (dengue virus type 2, UniProt P29990). In words: Dengue-2 NS5 methyltransferase inhibitors, primary screen, biochemical, confirmation dose response (AID 588689). It counts as functional.
A further assay relates to H9c2. The assay is described as follows: cells. Type of assay: functional, cell-based. Conditions: Rattus norvegicus, H9c2, Myocardium.
For assay [3], the target named is T1, RNA-binding protein pos-1 (Caenorhabditis elegans, UniProt G5EF15).
T1 sequence (G5EF15 whole entry): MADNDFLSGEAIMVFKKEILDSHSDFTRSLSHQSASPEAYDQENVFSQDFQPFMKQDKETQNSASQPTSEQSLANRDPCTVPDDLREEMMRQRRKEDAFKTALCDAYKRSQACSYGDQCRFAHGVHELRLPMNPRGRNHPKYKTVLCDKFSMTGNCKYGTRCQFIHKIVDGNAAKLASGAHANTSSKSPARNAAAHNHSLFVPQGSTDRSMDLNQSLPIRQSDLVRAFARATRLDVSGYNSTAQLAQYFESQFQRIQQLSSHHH
In words: inhibitors of POS-1/mex-3 RNA binding, dose response, biochemical, fluorescence polarization (AID 1964).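 Also: purified POS-1 fused to maltose binding protein made in E. coli; potency of compounds blocking POS-1 binding to fluorescent RNA.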

For assay [4], the target named is T2, Zinc finger protein mex-5 (Caenorhabditis elegans, UniProt Q9XUB2).
T2 sequence (Q9XUB2 whole entry): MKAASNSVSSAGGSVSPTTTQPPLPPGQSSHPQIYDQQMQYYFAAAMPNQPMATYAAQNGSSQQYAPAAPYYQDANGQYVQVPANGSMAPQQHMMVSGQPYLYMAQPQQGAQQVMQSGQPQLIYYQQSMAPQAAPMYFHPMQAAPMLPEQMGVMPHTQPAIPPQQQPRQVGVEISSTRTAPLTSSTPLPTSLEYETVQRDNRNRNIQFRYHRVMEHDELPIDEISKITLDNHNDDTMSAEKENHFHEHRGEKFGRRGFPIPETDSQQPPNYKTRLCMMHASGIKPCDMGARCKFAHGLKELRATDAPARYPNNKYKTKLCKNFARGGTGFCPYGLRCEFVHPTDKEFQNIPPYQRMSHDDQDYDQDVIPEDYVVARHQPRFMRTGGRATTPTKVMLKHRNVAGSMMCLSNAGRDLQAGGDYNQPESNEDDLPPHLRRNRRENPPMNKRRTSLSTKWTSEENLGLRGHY
In words: MEX-5/TCR-2 RNA interaction inhibitors, dose response, biochemical, C. elegans, fluorescence polarization (AID 1960).

Assay [5] concerns Streptococcus sp. 'group A'. The assay is described as follows: growth inhibition of control SK(-) GAS strain, dose response, counter-screen for streptokinase expression inhibitor project, luminescence, kanamycin, BacTiterGlo, confirmation (AID 1900). It counts as functional, organism-based.
A further assay concerns the target T3, Streptokinase A (Streptococcus pyogenes serotype M1, UniProt P10520).
T3 sequence (P10520 whole entry): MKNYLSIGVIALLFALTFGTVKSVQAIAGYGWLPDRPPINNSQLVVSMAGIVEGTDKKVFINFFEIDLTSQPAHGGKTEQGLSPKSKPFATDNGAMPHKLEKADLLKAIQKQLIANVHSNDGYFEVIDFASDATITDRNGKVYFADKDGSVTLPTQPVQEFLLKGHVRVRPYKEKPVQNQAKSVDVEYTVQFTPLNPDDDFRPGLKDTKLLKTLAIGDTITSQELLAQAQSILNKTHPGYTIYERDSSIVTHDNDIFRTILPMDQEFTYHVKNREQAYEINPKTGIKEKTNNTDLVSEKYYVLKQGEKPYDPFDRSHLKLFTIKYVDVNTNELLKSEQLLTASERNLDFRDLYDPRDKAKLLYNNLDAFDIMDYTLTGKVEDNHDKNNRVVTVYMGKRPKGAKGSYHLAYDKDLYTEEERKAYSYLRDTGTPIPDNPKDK
The assay is described as follows: S. pyogenes streptokinase expression inhibitors, potency, dose response, plasminogen activation absorbance, OD405 (AID 1914).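 Also: secreted streptokinase activity via plasminogen activation per viability signal from cell pellet.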 Type of assay: functional, Streptococcus pyogenes M1 GAS.

The test system of a further assay is Streptococcus. The assay is described as follows: Group A Streptococcus viability loss, dose response, counter-screen for streptokinase expression inhibitor project, luminescence, BacTiterGlo (AID 1915).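 Also: potency for reduction of bacterial viability or growth.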 It counts as functional, organism-based.
Assay [6] can be described thus: inhibitors of firefly luciferase expression or activity, dose response, H4 neuroglioma cells, luminescence (AID 1990). Type of assay: functional, cell-based.
The nature of assay [7]: Luminescence Cell-Based Dose Response HTS to Identify Inhibitors of 5'UTR Stem-Loop Driven Prion Protein mRNA Translation in H4 Neuroglioblastoma Cells. [Related pubchem assays: 1827 (Project Summary), 1813 (Primary HTS)]. It counts as functional.
A short description of assay [8]: inhibitors of SNCA 5'UTR-driven reporter translation, confirmation, H4 neuroglioma cells, luminescence (AID 1988). Type of assay: functional, cell-based.
A further assay concerns INS1. The assay is described as follows: beta cell apoptosis inhibitors, cytokine rescue, dose response, luminescence, retest (AID 449756).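 Also: cell death triggered by IL-1 beta plus TNF-alpha plus IFN-gamma mixture; protective hits raise ATP signal compared with cytokine alone wells.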 Type of assay: functional, cell-based. The following applies: Rattus norvegicus.
In assay [9] the target is T4, Corticotropin-releasing factor receptor 2/Corticotropin-releasing factor-binding protein (Homo sapiens, UniProt P24387+Q13324).
T4 sequence (Q13324 whole entry): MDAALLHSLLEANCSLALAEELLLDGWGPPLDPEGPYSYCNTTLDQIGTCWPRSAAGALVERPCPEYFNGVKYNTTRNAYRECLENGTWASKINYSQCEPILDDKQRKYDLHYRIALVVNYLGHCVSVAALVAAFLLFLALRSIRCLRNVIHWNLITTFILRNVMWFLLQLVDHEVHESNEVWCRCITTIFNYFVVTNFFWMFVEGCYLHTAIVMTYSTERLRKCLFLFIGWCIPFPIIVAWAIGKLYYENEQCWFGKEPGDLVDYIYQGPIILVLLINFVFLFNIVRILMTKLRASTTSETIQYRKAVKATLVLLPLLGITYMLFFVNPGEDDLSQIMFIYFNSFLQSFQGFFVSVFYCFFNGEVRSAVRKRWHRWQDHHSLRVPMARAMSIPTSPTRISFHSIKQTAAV
T4 sequence (P24387 whole entry): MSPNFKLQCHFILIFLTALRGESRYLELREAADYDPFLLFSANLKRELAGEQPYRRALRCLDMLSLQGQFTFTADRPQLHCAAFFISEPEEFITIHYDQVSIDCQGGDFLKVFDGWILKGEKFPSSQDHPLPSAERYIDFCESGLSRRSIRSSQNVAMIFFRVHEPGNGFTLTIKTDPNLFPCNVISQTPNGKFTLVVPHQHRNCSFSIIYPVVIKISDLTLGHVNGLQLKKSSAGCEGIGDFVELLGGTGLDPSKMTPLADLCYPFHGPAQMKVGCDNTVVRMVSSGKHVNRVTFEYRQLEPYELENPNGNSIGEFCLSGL
The assay is described as follows: activators of CRF receptor 2 with binding protein – uHTS hits, confirmation (AID 602473). It counts as functional. Conditions: read-out: EC50_Mean.

The nature of assay [10]: Shn3 3'UTR reporter inhibitors, dose response, cell-based, Clone20 osteoblasts, firefly luciferase, cherry-picked (AID 624132).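 Also: firefly luciferase luminescence from reporter carrying the Shn3 3'UTR in osteoblasts.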 Type of assay: functional.

Active and inactive are the calls of the source. Rule as the data show it, for most assays here: actives have a measured EC50 and inactives only a lower limit.

Genome polyprotein, sequence (P29990 2492-3391 limits assumed): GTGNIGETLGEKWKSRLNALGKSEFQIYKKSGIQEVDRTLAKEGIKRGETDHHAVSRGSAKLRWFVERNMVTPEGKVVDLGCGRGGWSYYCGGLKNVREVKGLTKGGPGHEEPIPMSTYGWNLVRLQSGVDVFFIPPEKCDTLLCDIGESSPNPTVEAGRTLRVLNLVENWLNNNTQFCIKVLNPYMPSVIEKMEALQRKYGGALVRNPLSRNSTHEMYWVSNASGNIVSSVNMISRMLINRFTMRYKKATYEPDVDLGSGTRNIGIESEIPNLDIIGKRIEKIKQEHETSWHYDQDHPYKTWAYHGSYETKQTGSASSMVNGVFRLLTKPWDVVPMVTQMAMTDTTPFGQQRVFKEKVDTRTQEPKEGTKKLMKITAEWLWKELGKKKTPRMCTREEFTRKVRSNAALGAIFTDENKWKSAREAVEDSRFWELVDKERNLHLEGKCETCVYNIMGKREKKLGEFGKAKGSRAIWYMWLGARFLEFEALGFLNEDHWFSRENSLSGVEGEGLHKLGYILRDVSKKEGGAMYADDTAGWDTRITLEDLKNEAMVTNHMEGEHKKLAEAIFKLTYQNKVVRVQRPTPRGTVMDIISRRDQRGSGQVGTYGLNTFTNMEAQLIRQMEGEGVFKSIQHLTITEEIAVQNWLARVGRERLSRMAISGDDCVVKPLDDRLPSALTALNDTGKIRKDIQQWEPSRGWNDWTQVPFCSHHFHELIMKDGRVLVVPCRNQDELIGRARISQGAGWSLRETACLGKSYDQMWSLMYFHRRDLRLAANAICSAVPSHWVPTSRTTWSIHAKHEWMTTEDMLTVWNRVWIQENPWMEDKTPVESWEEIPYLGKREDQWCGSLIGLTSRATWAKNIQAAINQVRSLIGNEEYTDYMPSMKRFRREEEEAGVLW

`CC(C)Cc1ccc(CN2CCCC(NC(=O)CCN3CCCO3)C2)cc1` (stereo not drawn): the EC50 in [1] was > 160 µM (inconclusive); in [2], > 38 µM (not active).
As to `Cc1ccc(S(=O)(=O)NN2C(=O)/C(=C/c3ccc(C(=O)O)cc3)SC2=S)cc1`, the IC50 at Genome polyprotein was 64.9 µM (active).
On to `COc1cc(NC(=O)c2c(OC)cccc2OC)ccc1NC(=O)c1cc2ccccc2o1`, for which the IC50 in the assay on H9c2 is > 79 µM (inactive).
Consider `COc1cc(C2C(C#N)=C(N)OC3=C2C(=O)CC(C)(C)C3)c([N+](=O)[O-])cc1OC` (stereo not drawn), for which the EC50 was 19.5 µM (active) in assay [3] and 23 µM (inconclusive) in assay [4]. The IC50 at Genome polyprotein was > 100 µM (active).
As to `CC(Sc1ccc(Cl)cc1)C(=O)NCc1ccc2c(c1)OCO2` (stereo not drawn), the EC50 in assay [1] was > 150 µM (inactive); in [2] it was 2.94 µM (active).
Take `COc1cccc(OC)c1C(=O)Nc1cc(C)nn1-c1nc2ccccc2[nH]1`: the EC50 in [5] is 15.5 µM (active); at Streptokinase A, > 150 µM (not active); with Streptococcus it was > 150 µM (not active). The IC50 with H9c2 was > 79 µM (inactive).
On to `COc1cc(NC(=O)c2ccco2)c(C(=O)OCC(=O)c2c[nH]c3ccccc23)cc1OC`, for which, in the assay with H9c2, the IC50 is > 79 µM (inactive).
In the case of `CCC1(CC)NC(=O)N(CC(=O)OCC(=O)Nc2ccccc2[N+](=O)[O-])C1=O`, the IC50 in the assay on H9c2 was 11.9 µM (active).
Turning to `O=C(Cn1[nH]c(=O)c2ccccc2c1=O)NCC1COc2ccccc2O1` (stereo not drawn), the IC50 in the assay on H9c2 was 48.7 µM (inactive).
For `COc1ccc(-n2cccc2/C=C2\C(=N)N3N=C(C(C)C)SC3=NC2=O)cc1`, the EC50 in [1] was > 150 µM (inactive); in assay [2], > 38 µM (not active).
On to `CC(C)C[C@H](NC(=O)c1[nH]cnc1C(=O)N[C@@H](CC(C)C)C(=O)OC(C)(C)C)C(=O)OCc1ccccc1`, for which the EC50 is 21.1 µM (active) in assay [6]; 2.62 µM (active) in assay [5]; 15.7 µM (active) in assay [7]; 8.51 µM (active) in [8]; 6.41 µM (active) with Streptococcus. Also, in the assay on INS1, the AC50 was 11.8 µM (active).
For `COc1cccc(NC(=S)NC(=O)Cc2ccc(Cl)cc2)c1`, the EC50 in assay [9] was 5.76 µM (active).
On to `O=S(=O)(NC1CCCCC1N1CCN(c2ccccc2F)CC1)c1ccc(Cl)cc1` (stereo not drawn), for which, in [9], the EC50 is 6.24 µM (active).
Consider `CCc1nc2ccccc2c(C(=O)OCc2nc(O)c3ccccc3n2)c1C`, for which the IC50 with H9c2 is 5.84 µM (active).
On to `O=C(Nc1ccccc1)c1cccc2c(-c3cccnc3)coc12`, for which the IC50 in the assay on H9c2 is > 79 µM (inactive).
`CCCCc1ccc(/N=C/C2=C(O)OC3(CCCCC3)OC2=O)cc1`: in assay [9], the EC50 is 5.81 µM (active).
Consider `O=C(N/N=C/c1ccccn1)c1cc(-c2ccncc2)nc2ccccc12`, for which the IC50 with H9c2 was > 79 µM (inactive).
For the compound `O=C(N/N=C/c1ccc2c(c1)OCO2)c1cc(-c2ccccc2Cl)nc2ccccc12`, the figures for the EC50 in [1] and in assay [2] were 94.7 µM (inconclusive) and 0.684 µM (active), respectively.
As for `CC(=O)OCC(=O)[C@@]1(O)CC[C@H]2[C@@H]3CCC4=CC(=O)CC[C@]4(C)[C@H]3C(=O)C[C@@]21C` [CORTISONE ACETATE], the AC50 in assay [10] was 28.3 µM (active).

(Values after ChEMBL document CHEMBL1201862, “PubChem BioAssay data set” (2004).)
